Experiments:
Assay type in all cases: cell-based, human
[1] = tested on: whole blood from subjects with T1D and Celiac disease; assay: Whole blood cytokine release assay, IL-2 (MAGPIX), Example 1; conditions: individual 17mer 20 μg/mL, blood 6 days after commencing oral gluten challenge; for subjects with elevated whole blood IL-2 release: four subjects
[2] = tested on: whole blood from subjects with T1D and Celiac disease; assay: Whole blood cytokine release assay, IFN-γ (MAGPIX), Example 1; conditions: individual 17mer 20 μg/mL, blood 6 days after commencing oral gluten challenge; for subjects with elevated whole blood IFN-γ release: four subjects
[3] = tested on: whole blood from subjects with T1D and Celiac disease; assay: Whole blood cytokine release assay, IP-10 (MAGPIX), Example 1; conditions: individual 17mer 20 μg/mL, blood 6 days after commencing oral gluten challenge; for subjects with elevated whole blood IP-10 release (2-fold greater than medium alone): four subjects

| Sequence | subjects with elevated whole blood IL-2 release [1] | subjects with elevated whole blood IFN-γ release [2] | subjects with elevated whole blood IP-10 release (2-fold greater than medium alone) [3] | IL-2 fold-change ([1]; Subject 1) | IL-2 fold-change (preproinsulin peptides) ([1]; Subject 1) [fold] | IL-2 fold-change ([1]; Subject 2) | IL-2 fold-change (preproinsulin peptides) ([1]; Subject 2) [fold] | IL-2 fold-change ([1]; Subject 6) | IL-2 fold-change (preproinsulin peptides) ([1]; Subject 6) [fold] | IL-2 fold-change ([1]; Subject 7) | IL-2 fold-change (preproinsulin peptides) ([1]; Subject 7) [fold] | IFN-g fold-change ([2]; Subject 1) | IFN-g fold-change (preproinsulin peptides) ([2]; Subject 1) [fold] | IFN-g fold-change ([2]; Subject 2) | IFN-g fold-change (preproinsulin peptides) ([2]; Subject 2) [fold] | IFN-g fold-change ([2]; Subject 6) | IFN-g fold-change (preproinsulin peptides) ([2]; Subject 6) [fold] | IFN-g fold-change ([2]; Subject 7) | IFN-g fold-change (preproinsulin peptides) ([2]; Subject 7) [fold] | IP-10 fold-change ([3]; Subject 1) | further results |
| --- | --- | --- | --- | --- | --- | --- | --- | --- | --- | --- | --- | --- | --- | --- | --- | --- | --- | --- | --- | --- | --- |
| FDRSTKVIDFHYPNELL [SEQ ID NO: 61] | One subjected responded | One subjected responded | One subjected responded |  |  |  |  |  |  |  |  |  |  |  |  |  |  |  |  |  |  |
| FYTPKTRREAEDLQGSL [SEQ ID NO: 46] | in one of these subjects | in one of these subjects | three subjects | 1.00 | 1.00 | 1.00 | 1.00 | 1.16 | 1.16 | 8.19 | 8.19 | 0.92 | 0.92 | 1.47 | 1.47 | 1.15 | 1.15 | 2.02 | 2.02 | 1.06 | IP-10 fold-change (preproinsulin peptides) ([3]; Subject 1): 1.06 fold; IP-10 fold-change ([3]; Subject 2): 4.64; IP-10 fold-change (preproinsulin peptides) ([3]; Subject 2): 4.64 fold; IP-10 fold-change ([3]; Subject 6): 2.24; IP-10 fold-change (preproinsulin peptides) ([3]; Subject 6): 2.24 fold; IP-10 fold-change ([3]; Subject 7): 2.70; IP-10 fold-change (preproinsulin peptides) ([3]; Subject 7): 2.70 fold |
| GRTGTYILIDMVLNRMA [SEQ ID NO: 12] | consistently stimulated | in two subjects | consistently stimulated |  |  |  |  |  |  |  |  |  |  |  |  |  |  |  |  |  |  |
| MALWMRLLPLLALLALW [SEQ ID NO: 54] |  |  | stimulated IP-10 release in the strongest responder | 1.00 | 1.00 | 1.00 | 1.00 | 1.00 | 1.00 | 0.21 | 0.21 | 1.02 | 1.02 | 1.01 | 1.01 | 0.88 | 0.88 | 0.67 | 0.67 | 1.04 | IP-10 fold-change (preproinsulin peptides) ([3]; Subject 1): 1.04 fold; IP-10 fold-change ([3]; Subject 2): 1.05; IP-10 fold-change (preproinsulin peptides) ([3]; Subject 2): 1.05 fold; IP-10 fold-change ([3]; Subject 6): 2.20; IP-10 fold-change (preproinsulin peptides) ([3]; Subject 6): 2.20 fold; IP-10 fold-change ([3]; Subject 7): 0.73; IP-10 fold-change (preproinsulin peptides) ([3]; Subject 7): 0.73 fold |
